Experimental findings from the NIST ThermoML archive (doi:10.1016/j.tca.2012.10.024) are described below.

Numbers after ± are expanded uncertainties.

What is called refractive index is a measure of how strongly the sample bends light. In general, mass density refers to the mass of a sample divided by its volume.

Data set [1] is described as follows: refractive index (Na D-line) (dimensionless). To be noted: 101.33 kPa, Liquid, Standard Abbe refractometry.
For data set [2] the following is noted: 101.33 kPa, Liquid, Pycnometric method.
Data set [3] in a line: relative permittivity at zero frequency (dimensionless). To be noted: 101.33 kPa, Liquid, Parallel plate capacitor.

For `COCCOCCOCCOCCOC` [2,5,8,11,14-pentaoxapentadecane], the refractive index in data set [1] (293.15 K) is recorded as 1.4326 ± 0.0009; in data set [1] (298.15 K) it was 1.4306 ± 0.0009; in data set [1] (303.15 K) it was 1.4286 ± 0.0009. Besides, the values for the mass density in data set [2] (293.15 K), in data set [2] (298.15 K) and in data set [2] (303.15 K) were 1011.06 ± 1.4 kg/m3, 1007.07 ± 1.4 kg/m3 and 1002.49 ± 1.4 kg/m3, respectively. Moreover, the “relative permittivity at zero frequency” value amounted to 7.939 ± 0.48 in data set [3] (293.15 K), 7.816 ± 0.47 in data set [3] (298.15 K) and 7.692 ± 0.46 in data set [3] (303.15 K).

As for `CCCCCCCC` [octane], the values for the refractive index in data set [1] (293.15 K), in data set [1] (298.15 K) and in data set [1] (303.15 K) were 1.3976 ± 0.0008, 1.3952 ± 0.0008 and 1.3929 ± 0.0008, respectively. The entries for the “relative permittivity at zero frequency” value in data set [3] (293.15 K), in data set [3] (298.15 K) and in data set [3] (303.15 K) were 1.968 ± 0.12, 1.961 ± 0.12 and 1.954 ± 0.12, respectively.

Turning to `CCCCCO` [pentan-1-ol], the figures for the refractive index in data set [1] (293.15 K), in data set [1] (298.15 K) and in data set [1] (303.15 K) were 1.41 ± 0.0008, 1.4082 ± 0.0008 and 1.4061 ± 0.0008, respectively. The figures for the “relative permittivity at zero frequency” value in data set [3] (293.15 K), in data set [3] (298.15 K) and in data set [3] (303.15 K) were 15.739 ± 0.94, 15.158 ± 0.91 and 14.579 ± 0.88, respectively.
